Where “and” joins values, the source holds several entries; their conditions need not be identical. Equal entries are not always repeated.
What was measured:
[1] = system: HEK293-TLR2 cells; test: CXCL8 expression in HEK-TLR2 cells (qRT-PCR); type: cell-based, human; settings: 5 h, two technical replicates, Fig 2b
Procedure: (§1) Fig. 2 Induction of chemokine (C-X-C motif) ligand 8/macrophage inflammatory protein-2 (CXCL8/MIP-2) by lugdunin is TLR2/MyD88-dependent. a HEK-control or HEK-TLR2 cells were treated with 2 μM lugdunin for 5 h and subsequently the CXCL8 concentration in the supernatant was analyzed by LEGENDplex^TM (BioLegend). Shown is one representative experiment of three independent experiments with two technical replicates ± s.e.m. b HEK-control or HEK-TLR2 cells were treated with increasing concentrations of lugdunin for 5 h and subsequently expression of CXCL8 was analyzed and normalized to actin. Shown is one representative experiment of three independent experiments with two technical replicates ± s.e.m. c Schematic overview of the mouse experiments: 6–8-week-old female C5BL/6 WT, MyD88-knockout (ko), or 5xTLR-ko mice were epicutaneously treated with 1.5 µg lugdunin or phosphate-buffered saline (PBS) as a control. After 24 h, mice were euthanized, 4 mm skin punches were taken, and further cultured in vitro for 10 h followed by cytokine analysis of the culture supernatant by LEGENDplex^TM (BioLegend). d, e Shown are the mean concentrations of IL-1α (d) or MIP-2 (e) in the skin culture supernatant of two skin punches from four mice each ± s.e.m. Significant differences to control treatments were analyzed by an unpaired two-tailed t test (*P < 0.05; **P < 0.01; ***P < 0.001). f Representative MIP-2-stained paraffin-embedded mouse skin sections. Scale bar, 100 µM. Source data are provided as a Source Data file
Quantitative reverse transcription-polymerase chain reaction (qRT-PCR) was performed in 10 µL reaction volume with SYBR^TM Green PCR Master Mix (Thermo Fisher) according to the manufacturer’s instructions using a LightCycler 96 (Roche Life Science). The initial denaturation step was at 95 °C for 5 min, followed by 40 cycles with 10 s each for the denaturation step at 95 °C, the annealing at individual temperature, and the elongation at 72 °C. Primer sequences and respective annealing temperatures are listed in Supplementary Table 1. […]

[2] = system: HEK293 cells; test: CXCL8 release by HEK-control cells (LEGENDplex); type: cell-based, human; settings: lugdunin 2 µM, 5 h, two technical replicates, Fig 2a
Procedure: as §1, with “After 24 h, mice were euthanized, 4 mm skin punches were taken, and further cultured in vitro for 10 h followed by cytokine analysis of the culture supernatant by LEGENDplex^TM (BioLegend). d, e Shown are the mean concentrations of IL-1α (d) or MIP-2 (e) in the skin culture supernatant of two skin punches from four mice each ± s.e.m.” left out, “Scale bar, 100 µM. Source data are provided as a Source Data file” left out
Supplementary Figure 2: CXCL8 controls and other cytokines in mouse skin 46 a: HEK-control cells or HEK -TLR2 cells were treated with 100 ng/mL Pam2Cys for 5 47 hours and subsequently the CXCL8 concentration in the supernatant was analyzed. […]

Lugdunin
CXCL8 expression normalized to actin ([1]; HEK-TLR2, lugdunin 0.5 µM, medium = 1): 2.676 and 2.042
CXCL8 expression normalized to actin ([1]; HEK-TLR2, lugdunin 1 µM): 1.404 and 1.257
CXCL8 expression normalized to actin ([1]; HEK-TLR2, lugdunin 2 µM): 3.918 and 4.112
CXCL8 expression normalized to actin ([1]; HEK-TLR2, lugdunin 3 µM): 4.408 and 3.864
CXCL8 expression normalized to actin ([1]; HEK-TLR2, lugdunin 5 µM): 6.364 and 6.916
CXCL8 expression normalized to actin ([1]; HEK-TLR2, lugdunin 10 µM): 9.415 and 10.232
CXCL8 concentration in supernatant [2]: 39.328 and 39.600

From paper PMC6588697, “Lugdunin amplifies innate immune responses in the skin in synergy with host- and microbiota-derived factors” (Nature Communications, 2019)
